A value given as a limit tells only on which side of the number the result lay.

Data set [1] addresses T1, AP2-associated protein kinase 1 (Homo sapiens, UniProt Q2M2I8). It is filed as cell-based.
The target of data set [2] is T1, AP2-associated protein kinase 1. As to the kind of experiment: Inhibition of AAK1 (unknown origin).
Data set [3] concerns HEK293. It is filed as toxicity, cell-based. The settings on record: human, hek293, 48 h, 30 µM.
The test system of another data set is Dengue virus. As to the kind of experiment: Antiviral activity against DENV infected in human Huh-7 cells. It is filed as functional, organism-based.
Another data set concerns Ebolavirus. Description: Antiviral activity against EBOV. Format: functional, organism-based. The conditions noted are these: Orthoebolavirus.
The nature of data set [4]: Cytotoxicity against human Huh-7 cells. It is filed as toxicity, cell-based.
Data set [5] relates to HEK293. Format: toxicity, cell-based. The settings on record: human, hek293, 48 h, 6 µM.
Data set [6] has as its system HEK293. Format: toxicity, cell-based. The conditions noted are these: human, hek293, 48 h, 20 µM.
A short description of data set [7]: Cytotoxicity against human Huh7.5 cells. Format: toxicity, cell-based, Huh-7.5.

T1 sequence (Q2M2I8 whole entry): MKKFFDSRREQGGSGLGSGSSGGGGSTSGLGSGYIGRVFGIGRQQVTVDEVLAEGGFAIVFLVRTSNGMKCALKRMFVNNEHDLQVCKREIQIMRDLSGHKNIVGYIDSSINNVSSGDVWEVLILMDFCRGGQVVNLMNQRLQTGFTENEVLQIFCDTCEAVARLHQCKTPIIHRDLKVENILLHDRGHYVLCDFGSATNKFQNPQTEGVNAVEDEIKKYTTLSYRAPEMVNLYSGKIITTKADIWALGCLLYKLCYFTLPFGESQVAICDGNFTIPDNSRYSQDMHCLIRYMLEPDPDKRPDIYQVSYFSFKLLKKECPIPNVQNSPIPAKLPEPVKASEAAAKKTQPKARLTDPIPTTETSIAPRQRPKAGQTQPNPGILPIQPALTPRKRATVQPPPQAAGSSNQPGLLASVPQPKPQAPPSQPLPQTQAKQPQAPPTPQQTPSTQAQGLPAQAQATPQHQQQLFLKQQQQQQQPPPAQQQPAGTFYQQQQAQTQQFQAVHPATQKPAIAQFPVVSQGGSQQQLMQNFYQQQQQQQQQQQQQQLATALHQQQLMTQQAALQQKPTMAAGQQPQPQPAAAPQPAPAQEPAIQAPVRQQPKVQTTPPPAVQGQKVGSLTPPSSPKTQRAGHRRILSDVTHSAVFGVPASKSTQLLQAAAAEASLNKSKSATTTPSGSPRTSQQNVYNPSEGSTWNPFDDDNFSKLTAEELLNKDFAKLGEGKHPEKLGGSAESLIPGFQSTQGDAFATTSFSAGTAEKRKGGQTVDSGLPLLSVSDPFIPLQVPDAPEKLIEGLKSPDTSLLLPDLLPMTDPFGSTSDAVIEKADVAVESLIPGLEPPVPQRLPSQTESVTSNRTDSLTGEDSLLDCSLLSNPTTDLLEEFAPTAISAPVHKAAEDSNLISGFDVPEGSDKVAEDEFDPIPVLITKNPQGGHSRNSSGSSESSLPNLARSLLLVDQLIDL

In the case of `C(#Cc1c[nH]c2ncc(-c3ccc4c(c3)OCC3COCCN43)cc12)c1ccccc1` (stereo not given), the IC50 in data set [1] was above 500 nM.
Molecule `CC(C)C[C@](C)(N)COc1ccc(-c2ccnc(C(F)F)c2)nc1C(F)F` [PILAVAPADIN] gave an IC50 in data set [2] of 1.2 nM. The Activity entry in the data set with HEK293 [3] is recorded as “Non-Toxic”.
`CCN(CC)S(=O)(=O)Nc1cccc(-c2ccc3c(NC(=O)C4CC4)n[nH]c3c2)c1`: the Activity result in the data set with HEK293 [3] was “Non-Toxic”.
As for `NCCCC#Cc1c[nH]c2ncc(-c3ccc4c(c3)OCC3COCCN43)cc12` (stereo not given), the IC50 in data set [1] was above 500 nM.
Turning to `N#Cc1ccc(-c2cnc3[nH]cc(NC(=O)c4cccnc4)c3c2)cc1`, the EC50 is 8000 nM in the data set with Dengue virus and above 10000 nM with Ebolavirus. Besides, the CC50 in data set [4] is above 50000 nM.
On to `COc1ccc(-c2cnc3[nH]cc(C#Cc4cccnc4)c3c2)cc1OC`, for which the EC50 in the data set on Dengue virus turned out to be 720 nM. Moreover, the Activity result in the data set with HEK293 [5] was “Toxic”. Moreover, 7.57 nM corresponded to half-maximal inhibition in data set [1] (IC50).
Turning to `CCN(CC)CCNC(=O)c1c(C)[nH]c(/C=C2\C(=O)Nc3ccc(F)cc32)c1C` [SUNITINIB], the Activity entry with HEK293 [6] is recorded as “Non-Toxic”. Further, the CC50 was above 10000 nM in [7] and 11500 nM in data set [4].
As to `C(#Cc1c[nH]c2ncc(-c3ccc4c(c3)OCC3COCCN43)cc12)c1cccnc1` (stereo not given), the Activity result with HEK293 [5] is “Toxic”.

As usually defined, the IC50 is the concentration that gives 50% inhibition. Higher therefore signals a need for much substance. Usually EC50 stands for the concentration giving half of the maximal effect. A lower EC50 goes with higher potency in that assay. What is called CC50 is the concentration giving 50% cytotoxicity. The low end stands for greater toxicity to the cells, the high end for lower toxicity to the cells.
